Assay results taken from patent US6359010B1, “Methods of treating anxiety and mood disorders with oleamide” (priority 1999, dated 2002).
Like-named read-outs stand apart in the source and are kept apart here.

Key:
[1] = test system: CRH mRNA in cloned hypothalamic IVB cells; test: CRH mRNA detection by Northern hybridization in clone IVB cells; format: cell-based, rat; details: 0 mM to 10 mM oleamide, 20 hours incubation, densitometry normalized to 28S, vs vehicle
Protocol: (§1) Embryonic day 19 Sprague Dawley rats were humanely dissected from pregnant rats and decapitated as described by Kasckow et al. (1997). The hypothalamus was removed and sliced. Hypothalamic slices were placed in phosphate buffered saline (PBS: NaCl, 137 mM; Na2HPO4, 21 mM; KH2PO4, 29 mM; KCl, 1.2 mM; pH 7.3). Cells were dissociated for 10-15 minutes in 0.25% trypsin containing 75 units/ml of DNAse in serum-free media (SFM) consisting of a mixture of Dulbecco's modified essential medium and Ham's F-12 (1:1, v/v from Gibco) supplemented with 14 mM glucose, 15 mM NaHCO3, 5 mM Hepes and 0.05 U/ml of penicillin streptomycin (Sigma). […]
(§2) Virus producer cell line γCRE/pZIPTEX was propagated at 1×10^6 cells per 100 mm tissue culture dish in the same media used for dissociated hypothalamic cultures (SFM+7.5% fetal bovine serum). […] One cell was selected on the basis of CRH peptide production which was monitored by radioimmunoassay (described below). […]
Total RNA was isolated using the PUREscript RNA isolation kit (Gentra Systems, Minneapolis, Minn.). […] A Foto/Eclipse Imager (Fotodyne Inc., Hartland, Wis.) interfaced with Power Macintosh 8100/110 using NIH ImageQuant analysis software was utilized for densitometric quantitation of the mRNA bands.
(§3) The quantitative data obtained were expressed as mean±standard error. […]

[2] = test system: N-methyl-D-aspartate (NDMA) receptor; details: cited from earlier work
[3] = test system: c-fos mRNA in brain areas; details: IP, rodents, cited from earlier work
5HT3 receptor = biological target: T1, 5HT3 receptor (Homo sapiens, UniProt P46098); details: cited from earlier work
T1 sequence (P46098 24-478): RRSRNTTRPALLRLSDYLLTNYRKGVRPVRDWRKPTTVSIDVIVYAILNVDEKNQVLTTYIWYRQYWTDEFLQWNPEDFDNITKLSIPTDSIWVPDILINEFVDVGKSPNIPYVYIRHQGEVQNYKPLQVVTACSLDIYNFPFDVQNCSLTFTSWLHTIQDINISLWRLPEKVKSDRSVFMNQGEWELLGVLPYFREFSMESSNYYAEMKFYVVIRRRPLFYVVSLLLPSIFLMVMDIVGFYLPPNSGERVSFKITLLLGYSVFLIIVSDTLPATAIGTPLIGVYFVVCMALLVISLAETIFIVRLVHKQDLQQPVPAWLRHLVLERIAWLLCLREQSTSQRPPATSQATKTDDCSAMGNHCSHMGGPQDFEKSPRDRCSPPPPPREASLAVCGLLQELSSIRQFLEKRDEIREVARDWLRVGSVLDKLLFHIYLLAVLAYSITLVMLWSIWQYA

[4] = test system: CRH release from cloned hypothalamic IVB cells; test: CRH release from clone IVB cells by radioimmunoassay; format: cell-based, rat
Protocol: as §1, §2
RIA for CRH was performed according to the protocol provided by IgG Corporation (Nashville, Tenn.) utilizing the reagents provided. […] Radioactivity of the pellet was measured using a Packard Multi-Prias 4 gamma counter (Packard Instruments, Downers, Ill.).
as §3

5HT2 = details: in vivo evidence; cited from earlier work
rats [5] = test: Elevated plus maze; format: in vivo, rat
Protocol: Methods for elevated plus maze testing were as follows: Based on Lister (1987), a 2 feet-4 arm radial maze consisting of 2 opposing enclosed arms (30 cm high×30 cm long×5 cm wide) and 2 opposing exposed arms (30 cm×5 cm) was constructed and was elevated on a pedestal 30 cm above the surface of a table and situated in the center of a dimly lit room. Testing was conducted in a quiet, dedicated room that was dimmed to provide 22 to 350 lux of illumination on the exposed arms of the maze and less than 1 lux within the enclosed arms. Animals were placed facing towards the enclosed arm in the center of the plus maze. […] (1992 , 1994). We assessed time in open arms and closed arms, total number of entries and rearings, based on Windle et al. (1997). All observers were blind to treatment to remove any investigator bias.

GABAA receptor = details: cited from earlier work
rat 5-HT2 receptor = details: oocytes expressing the rat 5-HT2 receptor, cited from earlier work
rats [6] = details: cited from earlier work

SMILES	CRH mRNA (CRH synthesis) [1]	CRH mRNA (CRH synthesis) ([1]; listed as Oleamide)	effects on NMDA receptor [2]	activation of brain areas (transient induction of c-fos mRNA) ([3]; 1 mg/kg)	activation of brain areas (transient induction of c-fos mRNA) ([3]; 5 or 10 mg/kg)	effects on 5HT3 receptor (5HT3 receptor)	immunoreactive CRH (CRH-LI) release ([4]; cloned IVB cells, 10 μM oleamide vs vehicle, n=9)	release of CRH ([4]; cloned hypothalamic IVB cells, concentration dependence)	5HT2 function in vivo (5HT2)	exploratory behavior (rats [5]; 2 mg dose, rats approx. 250 g, n=10 per group)	total number of entries to both open and closed arm (rats [5]; 2 mg dose, rats, relative to vehicle, P=0.0241)	Rearings (mean) (rats [5]; 5 min of testing, 2 mg dose, rats, control 8.2, P=0.002)	Rearings (mean) (rats [5]; 10 min of testing, 2 mg dose, rats, control 15, P=0.01)	overall activity (rats [5]; IP dosing)	effects on GABAA receptor (GABAA receptor)	effect on 5-HT-elicited currents (rat 5-HT2 receptor)	direct effects on 5-HT2 receptor (rat 5-HT2 receptor; without 5-HT)	sleep latency (rats [6]; doses between 5 and 150 mg)	duration of induced sleep (rats [6]; intraperitoneal, doses between 5 and 50 mg) [h]
CCCCCCCC/C=C\CCCCCCCC(N)=O [oleamide, cis-9,10-octadecenoamide]	concentration-dependent manner	increased CRH mRNA	no significant effects	not	activation of multiple brain areas	no significant effects	significant increase	significant concentration-dependent increases	indirectly potentiates	overall increase in exploratory behavior	approximately doubled	17.2	24	decreasing overall activity	no significant effects	markedly potentiates	no significant direct effects	reduce sleep latency	1 to 2.5
CCCCCCCCCCCCCCCCCC(N)=O [octadecanamide, reference compound]	–	–	–	–	–	–	–	–	–	–	–	–	–	–	–	opposite those of oleamide	–	–	–
CCCCCCCC/C=C\CCCCCCCC(=O)O [oleic acid, reference compound]	–	–	–	–	–	–	–	–	–	–	–	–	–	–	–	does not have any effect	–	–	–
